The record followed here is ChEMBL document CHEMBL1201862, “PubChem BioAssay data set” (2004).

Some test systems named below: BT-549; EKVX; HCC 2998; HCT-15; HL-60; K562; MDA-MB-435; MOLT-4; NCI-H522; NCI/ADR-RES; OVCAR-4; RPMI-8226; SF-539; SK-MEL-2; SK-MEL-5; SN12C; U-251; UACC-257; UACC-62; UO-31.
Holding throughout (assay): NCI-60 cell line screen, 48 h

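In this assay, cells in 96-well plates receive the compound at five concentrations for 48 hours. Endpoints are linearly interpolated between the surrounding concentrations. GI50 marks 50% less growth.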 Calls of active or inactive are those of the source. No stated cut-off is given here; in the data, active = GI50 up to about 1.1 µM and inactive = higher.

As to `CC(C)NC(=O)OCc1c(COC(=O)NC(C)C)c(-c2ccc[n+](COC(=O)C(C)C)c2)n2c1CCC2`, the GI50 is 81.1 µM (inactive) with BT-549; > 100 µM (inactive) with EKVX; > 100 µM (inactive) in the experiment with HCC 2998; above 71.9 µM in the experiment with HCT-15; 16 µM (inactive) in the experiment on HL-60; 56.6 µM (inactive) with K562. The GI50 with MDA-MB-435 is > 100 µM (inactive); in the experiment on MOLT-4, 13.6 µM (inactive); in the experiment on NCI-H522 it was 34.5 µM (inactive); with NCI/ADR-RES, 63.7 µM (inactive); in the experiment on OVCAR-4, > 87.3 µM (inactive); in the experiment with RPMI-8226, 55.2 µM (inactive). Further, the GI50 in the experiment on SF-539 was 31.8 µM (inactive); with SK-MEL-2, > 83.4 µM (inactive); with SK-MEL-5, > 94.4 µM (inactive); with SN12C it was 37.5 µM (inactive); with U-251 it was > 75.5 µM (inactive); in the experiment on UACC-257, > 100 µM (inactive). The GI50 in the experiment with UACC-62 is 26.9 µM (inactive); in the experiment on UO-31, 52.4 µM (inactive).

For the compound `CC(=O)C1=C(C)N2C(=NC3=C(CCc4ccccc43)C2c2ccc(Cl)cc2)S1` (stereo not given), the GI50 with BT-549 is > 100 µM (inactive); in the experiment on EKVX, 46.8 µM (inactive); with HCC 2998, 5.69 µM (inactive); in the experiment on HCT-15 it was 29.2 µM; in the experiment on HL-60, 4.42 µM (inactive); in the experiment with K562, 2.05 µM (inactive). In addition, the GI50 is > 43.1 µM (inactive) with MDA-MB-435; 3.8 µM (inactive) in the experiment on MOLT-4; 6.53 µM (inactive) in the experiment on NCI-H522; > 73.8 µM (inactive) in the experiment on NCI/ADR-RES; > 36.1 µM (inactive) in the experiment with OVCAR-4; 2.12 µM (inactive) in the experiment on RPMI-8226. The GI50 in the experiment on SF-539 was > 92.9 µM (inactive); in the experiment on SK-MEL-2, > 45 µM (inactive); with SK-MEL-5, 26.1 µM (inactive); with SN12C, > 100 µM (inactive); with U-251 it was > 67.5 µM (inactive); with UACC-257, > 78.5 µM (inactive). Moreover, the GI50 in the experiment with UACC-62 was 58.7 µM (inactive); in the experiment on UO-31, > 53.7 µM (inactive).

In the case of `COc1cccc2c1cc([N+](=O)[O-])c1c(C(=O)O)cc3c(c12)OCO3` [ARISTOLOCHIC ACID], the GI50 in the experiment on BT-549 is 39.4 µM (inactive); in the experiment with EKVX, 43.4 µM (inactive); in the experiment on HCC 2998, 2.8 µM (inactive); in the experiment on HCT-15, 18.2 µM; with HL-60, 23.1 µM (inactive); in the experiment with K562, 33.9 µM (inactive). Moreover, the GI50 was 54.8 µM (inactive) in the experiment with MDA-MB-435; 26.7 µM (inactive) in the experiment with MOLT-4; 28.1 µM (inactive) with NCI-H522; 38.1 µM (inactive) in the experiment on NCI/ADR-RES; 32 µM (inactive) with OVCAR-4; 24.7 µM (inactive) with RPMI-8226. Also, the GI50 with SF-539 was 24.9 µM (inactive); with SK-MEL-2 it was 57.8 µM (inactive); in the experiment with SK-MEL-5, 44 µM (inactive); in the experiment on SN12C it was > 74.3 µM (inactive); with U-251, 36.9 µM (inactive); in the experiment with UACC-257, 97.7 µM (inactive). Moreover, the GI50 was 31.4 µM (inactive) in the experiment with UACC-62 and 40.6 µM (inactive) in the experiment with UO-31.
